From patent publication US8507554B2 (priority 2006, dated 2013)

What was measured:
P. aeruginosa [1] = test: Inhibiting ability against biofilm formation: count of adhesive P. aeruginosa on specimen surface after 4 hours; assay type: cell-based, Pseudomonas aeruginosa; conditions: 10 μmol/L, table shows Comparative example 1 (distilled water) = 100
Procedure: Inhibiting ability against biofilm formation of quorum-sensing antagonist prepared according to exemplary embodiments 1-7 was evaluated.
Specimen was set in nutrient flask containing 10 μmol/L of quorum-sensing antagonist prepared according to exemplary embodiments 1-7 and P. aeruginosa which has strong adhesive character on surface. Numbers of adhesive P. aeruginosa on surface were counted after 4 hours. Distilled water was poured into nutrient flask instead of quorum-sensing antagonist as a comparison example 1. Numbers of adhesive P. aeruginosa on surface were counted after 4 hours. […] Numbers of adhesive P. aeruginosa on surface were counted after 4 hours. […]

Vibrio harveyi BB886 = test: Bioluminescence assay of quorum-sensing antagonistic ability with reporter strain Vibrio harveyi BB886; assay type: cell-based; conditions: 2 hours
Procedure: Quorum-sensing antagonistic ability of 2-(phenylcarbonothioylthio) acetyl homoserine lactone as described in Formula 8 was evaluated using Vibrio harveyi strain BB886 which responds to the AI-1, i.e., N-(3-hydroxybutanoyl)-1-homoserine lactone (3-OH—C4-HSL) as reporter strain. Vibrio harveyi strain BB886 was grown in LBS medium (10 g/L tryptone, 5 g/L yeast extract, 20 g/L NaCl) at 30° C. For the bioluminescence assay, an overnight culture was diluted 100-fold in a sterile AI bioassay (AB) medium (300 mM NaCl, 50 mM MgSO4, 0.2% (w/v) vitamin-free casamino acid, 10 mM potassium phosphate, 1 mM 1-arginine, 1% glycerol; pH 7.5).
After vaporizing chloroform in 4 test tubes at 30° C. for 2 hours, 4.0 mL of the diluted reporter strain culture was added to No. 1˜No. 4 test tubes and incubated at 30° C. Luminescence measurements were performed after 2 hours of incubation using a luminescence meter (Thermo Electron Co.). Bacterial cell density was measured by optical densities at 600 nm (OD600) using a UV spectrophotometer (HP8452A, H.P.). The antagonist activities of 2-(phenylcarbonothioylthio) acetyl homoserine lactone were expressed as a specific luminescence; relative light units/OD600. […]

[2] = test system: Agrobacterium tumefaciens A136(pTiA136, pCF218, pCF372); test: LacZ luminescence assay of quorum-sensing antagonistic ability with reporter strain A. tumefaciens A136; assay type: cell-based; conditions: 0.5 μM autoinducer 3-oxo-C8-HSL plus 5 μM of compound
Procedure: A. tumefaciens A136 (pTiA136, pCF218, and pCF372) was cultured in Luria-Bertani (LB) media with 50 μg/mL spectinomycin and 4.5 μg/mL tetracycline at 30° C. For the bioassay of 2-(phenylcarbonothioylthio) acetyl homoserine lactone, an overnight culture was diluted at 1:100 and incubated up to an optical density of 0.3 at 600 nm (OD600) at 30° C.
No. 1 solution contained 0.5 μM of N-3-oxootanoyl homoserine lactone.
After vaporizing chloroform in 2 test tubes at 30° C. for 2 hours, 4.0 mL of the diluted reporter strain culture was added to No. 1 and No. 2 test tubes.
LacZ quantative analysis for test tubes described above was performed using Tropix-plus kit (Applied Biosystems, USA). Luminescence measurements were performed after 2 hours of incubation using a luminescence meter (Thermo Electron Co.). Bacterial cell density was measured by optical densities at 600 nm (OD600) using a UV spectrophotometer (HP8452A, H. P.). The antagonist activities of 2-(phenylcarbonothioylthio) acetyl homoserine lactone were expressed as a specific luminescence; relative light units/OD600.

[3] = test system: E. coli DH5α co-transformed by pJN105L (LasR expression plasmid) and pSC11 (lasI::lacZ fusion reporter plasmid); test: LacZ bioassay of quorum-sensing antagonistic ability with co-transformed E. coli DH5α (LasR reporter); assay type: cell-based; conditions: 1 μM autoinducer 3-oxo-C12-HSL plus 1, 2 or 10 μM of compound
Procedure: Transformant E. coli was cultured in Luria-Bertani (LB) broth with 10 μg/mL gentamicin and 50 μg/mL ampicillin at 37° C.
For LacZ bioassay of 2-(phenylcarbonothioylthio) acetyl homoserine lactone, an overnight culture was diluted at 1:100 and incubated up to an optical density of 0.3 at 600 nm (OD600) at 30° C. Then, 0.4% arabinose was added.
After vaporizing chloroform in 4 test tubes at 37° C. for 2 hours, 4.0 mL of the diluted reporter strain culture was added to No. 1˜No. 4 test tubes.
LacZ Bioassay for test tubes described above was performed using Tropix-plus kit (Applied Biosystems, USA). Luminescence measurements were performed after 2 hours of incubation using a luminescence meter (Thermo Electron Co.). Bacterial cell density was measured by optical densities at 600 nm (OD600) using a UV spectrophotometer (HP8452A, H.P.).
The antagonist activities of 2-(phenylcarbonothioylthio) acetyl homoserine lactone were expressed as a specific luminescence; relative light units/OD600.

P. aeruginosa [4] = test: Microscopy of P. aeruginosa biofilm grown on specimens for 48 hours; assay type: cell-based, Pseudomonas aeruginosa; conditions: biofilm grown 48 hours
Procedure: Specimens were set in nutrient flasks containing compounds according to the first exemplary embodiment 1, comparative examples 1 and 2. Biofilm was grown on the specimens for 48 hours. The specimen were examined using microscope. Furthermore, specimens were set in nutrient flasks containing compounds according to exemplary embodiment 6 and comparative example 2. Biofilm on the specimens was grown for 48 hours. The specimens were examined using a microscope.

| Compound | % of adhesive P. aeruginosa relative to comparative example (P. aeruginosa [1]) | also measured |
| --- | --- | --- |
| O=C(CSc1ncccn1)NC1CCOC1=O (stereo not shown) [Example 2] | 51% | – |
| O=C(CSC(=S)c1ccccc1)NC1CCOC1=O (stereo not shown) [Example 6, 2-(phenylcarbonothioylthio)acetyl homoserine lactone] | 20% | luminescence intensity per V. harveyi (relative light units/OD600) (Vibrio harveyi BB886; 1 μM autoinducer 3-OH-C4-HSL plus 1, 5 or 10 μM of compound): decreased remarkably; luminescence intensity per A. tumefaciens A136 (relative light units/OD600) [2]: decreased remarkably; luminescence intensity per co-transformed E. coli DH5α (relative light units/OD600) [3]: decreased remarkably |
| C[C@@H](O)CC(=O)N[C@H]1CCOC1=O [3-hydroxybutanoylhomoserine lactone, N-(3-hydroxybutanoyl)-1-homoserine lactone, reference compound] | – | luminescence intensity per V. harveyi (relative light units/OD600) (Vibrio harveyi BB886; sample containing only 1 μM autoinducer): relatively high |
| O=C(CSc1ccncc1)NC1CCOC1=O (stereo not shown) [Example 1, N-(2-oxo-tetrahydrofuran-3-yl)-2-(pyridin-4-ylthio)acetamide] | 40% | – |
| CSCC(=O)NC1CCOC1=O (stereo not shown) [Example 5, 2-(methylthio)-N-(2-oxo-tetrahydrofuran-3-yl)acetamide] | 30% | – |
| O=C(O)CSC(=S)SCC(=O)NC1CCOC1=O (stereo not shown) [Example 7] | 30% | – |
| O=C(O)CSCCSCC(=O)NC1CCOC1=O (stereo not shown) [Example 4, 2-(2-(2-oxo-2-(2-oxo-tetrahydrofuran-3-ylamino)ethylthio)ethylthio)acetic acid] | 13% | – |
| CCCCCC(=O)CC(=O)N[C@H]1CCOC1=O [Autoinducer] | – | P. aeruginosa attached on specimen (microscopic image) (P. aeruginosa [4]): plentifully observed |
| CCCCCCCCCC(=O)CC(=O)N[C@H]1CCOC1=O [Comparative example 2, N-3-oxododecanoylhomoserinelactone, reference compound] | 190% | – |
| O=C(O)CSCC(=O)NC1CCOC1=O (stereo not shown) [Example 3, 2-(2-oxo-2-(2-oxo-tetrahydrofuran-3-ylamino)ethylthio)acetic acid] | 33% | – |
